Assay results taken from PubChem BioAssay (NCI).
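Each compound was tested at five concentrations against cells in 96-well plates for 48 hours. GI50: concentration for 50% inhibition of growth. TGI denotes the concentration required for complete inhibition of growth.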

Columns and labels:
Experiment in all cases: NCI anticancer screen, dose series, 48 h
A549 NSCLC = system: A549 NSCLC
HOP-92 NSCLC = system: HOP-92 NSCLC
MDA-MB-435 = system: MDA-MB-435
SNB-75 CNS = system: SNB-75 CNS
OVCAR-5 ovarian = system: OVCAR-5 ovarian
HCT-15 colon = system: HCT-15 colon
SW-620 colon = system: SW-620 colon
SF-295 CNS = system: SF-295 CNS
M14 melanoma = system: M14 melanoma
RXF 393 renal = system: RXF 393 renal

SMILES	GI50 (A549 NSCLC) [µM]	TGI (A549 NSCLC) [µM]	GI50 (HOP-92 NSCLC) [µM]	TGI (HOP-92 NSCLC) [µM]	GI50 (MDA-MB-435) [µM]	TGI (MDA-MB-435) [µM]	GI50 (SNB-75 CNS) [µM]	TGI (SNB-75 CNS) [µM]	GI50 (OVCAR-5 ovarian) [µM]	TGI (OVCAR-5 ovarian) [µM]	GI50 (HCT-15 colon) [µM]	TGI (HCT-15 colon) [µM]	GI50 (SW-620 colon) [µM]	TGI (SW-620 colon) [µM]	GI50 (SF-295 CNS) [µM]	TGI (SF-295 CNS) [µM]	GI50 (M14 melanoma) [µM]	TGI (M14 melanoma) [µM]	GI50 (RXF 393 renal) [µM]	TGI (RXF 393 renal) [µM]
COc1ccc2nc3cc(Cl)ccc3c(Nc3cc(C(C)C)c(O)cc3C)c2c1	2.26	6.98	1.16	3.11	1.8	4.48	2.16	7.61	3.03	9.48	1.7	3.62	1.77	3.37	1.36	3.01	1.74	3.31	1.28	2.9
O=C1NC(=O)C(c2c[nH]c3ccccc23)=C1c1ccccc1	> 25	> 25	> 25	> 25	> 25	> 25	10.3	> 25	> 25	> 25	> 25	> 25	> 25	> 25	> 25	> 25	> 25	> 25	> 25	> 25
O=C(/C=C/c1ccc(O)cc1)c1cc(Cl)ccc1O		> 100		> 100				> 100						> 100		> 100		> 100		88.9
Cc1ccc2nc3c(C)cc(=O)cc-3sc2c1		54.6		76.7				69.2		61		40.9		31.1		> 100		42.4		
COC(=O)C1(O)c2ccccc2N=C2C1CCN2C (stereo not drawn)		> 100		> 100				87.8		> 100		> 100		> 100		> 100		> 100		> 100
COc1cccc(/C=C\c2ccnc3ccccc23)c1		> 10		> 10		> 10		> 10		> 10		> 10		> 10		> 10		> 10		> 10
CCCCCCCCCCCC(=O)OC(COC(N)=O)COc1ccc(Cl)cc1 (stereo not drawn)		36.8						> 100				91.3		63		40		35		43.9
N=C1/C(=C2\Nc3ccccc3S2)CC(=O)N1c1ccc(SC(F)F)cc1	3.75	> 100			7.69	> 100	0.17	1.15	8.88	79.4	0.347	> 100	5.37	> 100	1.1	9.32	33.2	> 100	2.81	25.7
O=C1CC[C@@H](NC(=O)Cc2ccccc2)C(=O)N1		> 100		> 100				> 100		> 100				> 100		> 100		> 100		
COc1ccc2c(c1)C(=O)c1c-2c(N2CCN(C(=O)CCNCCNCCO)CC2)nc2ccccc12	13.2	28	3.77	18.2	21.7	47.8	18.6	37.4	18.3	34.4	17.1	33.9	2.26	5.17	18.8	39.3	11.8	24.1		
N=C1C(c2nc3ccccc3s2)=C(O)CN1c1cc(Cl)cc(Cl)c1	> 100	> 100	59.3	> 100	> 100	> 100	18.7	77.4	> 100	> 100	0.705	> 100	> 100	> 100	89.2	> 100				
Cn1cc(C2=C(c3c(S(C)=O)n(C)c4ccccc34)C(=O)NC2=O)c2ccccc21 (stereo not drawn)	9.24	> 25			2.68	9.14	5.8	22.3	> 25	> 25	7.38	> 25	7.78	> 25	5.93	> 17.2	7.56	> 25	5.42	> 20.7
NCC1(N2CCOCC2)C2CCCC21CNc1ccccc1 (stereo not drawn)		> 100		> 100				> 100		> 100				> 100		> 100		> 100		> 100
CCCCC(C(=O)CCC(=O)Nc1ccc(Cl)cc1)C(=O)C(C)C (stereo not drawn)		> 100		> 100				> 100		> 100		> 100		> 100		> 100		> 100		> 100
COc1ccc(/C=C2/CN(CCC#N)C/C(=C\c3ccc(OC)cc3)C2=O)cc1	2.92	> 100	1.85	20.8	2.99	> 100			3.33	24.9	2.51	21.8	2.15	6.72			3.01	9.6	1.7	3.29
Cc1ccc(NC(=O)C(=O)CC(=O)c2ccccc2)cc1C		> 100		> 100				> 100		> 100		> 100		> 100		> 100		> 100		> 100
Cc1cc2c(cc1Cl)SC(C(=O)c1ccc(Cl)c(Cl)c1)NS2(=O)=O (stereo not drawn)	45.2	> 100	25.2	65.9	26.7	65.6	31.3	81.1	49.2	> 100	28.7	76.1	27.6	72.9	34.9	> 100	43.9	> 100		
